Laboratory results taken from patent publication US20170362498A1, “USE OF MGDA AS ADDITIVE IN PROCESSES FOR RECOVERING CRUDE OIL AND/OR GAS FROM SUBTERRANEAN FORMATIONS” (BASF SE, priority 2014, published 2017).

Columns and labels:
[1] = Determination of stability against strong alkali (solid NaOH), visual inspection; conditions: for Appearance of test solutions after 96 h of storage: 25 g of 40% by weight aqueous solution, ambient temperature; for Solubility / appearance with increasing NaOH amounts (summary): 40% by weight aqueous solution, 0 to 2.5 g solid NaOH added, up to 96 hours
[2] = Determination of solubility in water (Tsol); type: physicochemical; conditions: minimum temperature for forming a kinetically stable (clear) 50% by weight solution in water; cooled 30° C./h to precipitation, reheated 1° C./h
Protocol: In each case, the solubility was calculated to refer to pure MGDA, without hydrate water.
The solubility of inventive mixtures and of comparison experiments was determined with an apparatus that allowed heating and cooling down liquid solutions. […] Then, the slurry of crystals of MGDA so obtained was again heated at a speed of 1° C./h until a clear solution was obtained. The slurry/solution was checked for solid particles by visible light scattering detection.
The above tests furnished the minimum temperature, Tsol, for forming a kinetically stable 50% by weight solution of the respective mixture of isomers. A higher temperature Tsol correlates with a lower solubility at ambient temperature.

Structure (SMILES) | Appearance of test solutions after 96 h of storage ([1]; NaOH added 1.5 g (6 wt. % vs. 40% solution), * = after 48 hours, listed as MGDA: 50% ee) | Appearance of test solutions after 96 h of storage ([1]; NaOH added 2.0 g (8 wt. % vs. 40% solution), * = after 48 hours, listed as MGDA: 50% ee) | Appearance of test solutions after 96 h of storage ([1]; NaOH added 2.5 g (10 wt. % vs. 40% solution), ** = immediately after addition of NaOH, listed as MGDA: 50% ee) | Solubility / appearance with increasing NaOH amounts (summary) ([1]; listed as mixture according to the present invention (50% ee)) | Tsol [2] | Appearance of test solutions after 96 h of storage ([1]; NaOH added 0 g (0 wt. % vs. 40% solution)) | Appearance of test solutions after 96 h of storage ([1]; NaOH added 0.5 g (2 wt. % vs. 40% solution)) | Appearance of test solutions after 96 h of storage ([1]; NaOH added 1.0 g (4 wt. % vs. 40% solution)) | Appearance of test solutions after 96 h of storage ([1]; NaOH added 1.5 g (6 wt. % vs. 40% solution), * = after 48 hours, listed as Racemic MGDA) | Appearance of test solutions after 96 h of storage ([1]; NaOH added 2.0 g (8 wt. % vs. 40% solution), * = after 48 hours, listed as Racemic MGDA) | Appearance of test solutions after 96 h of storage ([1]; NaOH added 2.5 g (10 wt. % vs. 40% solution), ** = immediately after addition of NaOH, listed as Racemic MGDA) | Solubility / appearance with increasing NaOH amounts (summary) ([1]; listed as racemic MGDA)
CC(C(=O)O)N(CC(=O)O)CC(=O)O (stereo not drawn) [ee value 50.0, methyl glycine diacetic acid] | clear liquid | clear liquid | clear liquid | remains clear |  |  |  |  |  |  |  | 
CC(C(=O)O)N(CC(=O)O)CC(=O)O (stereo not drawn) [ee value zero, methyl glycine diacetic acid] |  |  |  |  | 103.8 °C | clear liquid | clear liquid | clear liquid | turbid* liquid | turbid* liquid | turbid, precipitate** | decreases with increasing NaOH amounts
